Results from patent publication US7732374B2, “Fungicidal mixtures based on prothioconazole and an insecticide” (priority 2002, dated 2010).

System: Sphaerotheca fuliginea
Assay: Protective activity against mildew of cucumbers caused by Sphaerotheca fuliginea
Type: in vivo
Details: inoculated 20 hours after spraying, evaluated after 7 days
Protocol: Evaluation was carried out by determining the infected leaf areas in percent. These percentages were converted into efficacies. The efficacy (W) was calculated as follows using Abbot's formula:
[formula] • α corresponds to the fungal infection of the treated plants in % and • β corresponds to the fungal infection of the untreated (control) plants in %
An efficacy of 0 means that the infection level of the treated plants corresponds to that of the untreated control plants; an efficacy of 100 means that the treated plants were not infected.
20 hours after the spray coating had dried on, the plants were inoculated with an aqueous spore suspension of mildew of cucumbers (Sphaerotheca fuliginea). The plants were then cultivated in a greenhouse at 20-24° C. and 60-80% relative atmospheric humidity for 7 days. The extent of mildew development was then determined visually in % infection of the cotyledon area.
The visually determined values for the percentage of infected leaf areas were converted into efficacies in % of the untreated control. An efficacy of 0 means the same degree of infection as the untreated control, an efficacy of 100 means 0% infection.

[1] = 0.015 ppm active compound in the spray liquor
[2] = 0.06 ppm active compound in the spray liquor
[3] = 0.25 ppm active compound in the spray liquor
[4] = 1 ppm active compound in the spray liquor

Question: With `OC(Cc1ccccc1Cl)(Cn1nc[nH]c1=S)C1(Cl)CC1` (stereo not drawn) [Compound I, 2-[2-(1-chlorocyclopropyl)-3-(2-chlorophenyl)-2-hydroxypropyl]-2,4-dihydro-[1,2,4]-triazole-3-thione] as the compound, how does the “Efficacy in % of the untreated control” value [1] read?
Answer: Its value is 0%.

Question: What about the “Efficacy in % of the untreated control” value [2] of the same compound?
Answer: The value was 0%.

Question: And the “Efficacy in % of the untreated control” value [3]?
Answer: The value was 5%.

Question: What does the source list for `N#Cc1nn(-c2c(Cl)cc(C(F)(F)F)cc2Cl)c(N)c1[S+]([O-])C(F)(F)F` (stereo not drawn) [Compound II, fipronil]?
Answer: Efficacy in % of the untreated control [1]: 0%; Efficacy in % of the untreated control [2]: 0%; Efficacy in % of the untreated control [3]: 0%; Efficacy in % of the untreated control [4]: 0%

Question: Which results are given for `CCOP(=S)(OCC)Oc1nc(Cl)c(Cl)cc1Cl` [Compound III, chlorpyrifos]?
Answer: Efficacy in % of the untreated control [1]: 0%; Efficacy in % of the untreated control [2]: 0%; Efficacy in % of the untreated control [3]: 0%

Question: What does the source list for `CN1COCN(Cc2cnc(Cl)s2)/C1=N\[N+](=O)[O-]` [Compound IV, thiamethoxam]?
Answer: Efficacy in % of the untreated control [1]: 0%; Efficacy in % of the untreated control [2]: 0%; Efficacy in % of the untreated control [3]: 0%; Efficacy in % of the untreated control [4]: 0%; Efficacy in % of the untreated control (4 ppm active compound in the spray liquor): 0%
